Measured values from patent US7851637B2, “Compounds and methods for inhibiting the interaction of BCL proteins with binding partners” (Infinity Pharmaceuticals, Inc., priority 2004, dated 2010).
Where two headings read alike, the source gives them in different places.

Assays:
[1] = biological target: Bcl-2 (Homo sapiens, UniProt P10415); experiment: Bcl-2 binding affinity analysis (fluorescence polarization binding assay)
Outline: (§1)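 Quantitative binding by polarized-fluorescence detection; in vitro, no cells involved.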

[2] = tested on: RL Human Follicular Lymphoma Cell Line; experiment: Alamar blue cytotoxicity assay in RL cells; type: cell-based; settings: 72 h incubation, read-out: Bcl RL Alamar Blue IC50
Procedure: When RL-cells are exposed to isoxazolidine compounds of the present invention, the inhibitors show a dose-dependent cell-killing in the Alamar blue cytoxicity assay with IC50 values of from about 100 μM to about 1 μM (See Examples). When Panc1 cells are exposed to the isoxazolidine compounds of the present invention in combination with camptothecin, the inhibitors show a synergistic dose-dependent cell killing in the propidium iodide exclusion cell survival assay with IC50 values of from about 100 μM to about 1 μM (See Examples).
• 1) Using 96 well plates, compounds were serially diluted in DMSO from 9 mM to 4 uM • 2) Assay plates were prepared by diluting samples 310 fold into 150 ul of medium containing 30,000 cells/well resulting in a final DMSO concentration of 0.3% and a concentration range from 29 uM to 0.013 uM for each compound. • 3) Plates were incubated at 37 C and 5% CO2 for 72 h • 4) After 72 h, Alamar blue reagent was added to each well and plates read according to manufacturer's instructions
In vitro cytotoxicity data for RL cells is presented below for various compounds of the invention.

[3] = biological target: Bcl-xL (Homo sapiens, UniProt Q07817); experiment: Bcl-xL binding affinity analysis (fluorescence polarization binding assay); set-up: scale not given here
Bcl-xL, sequence (Q07817 whole entry): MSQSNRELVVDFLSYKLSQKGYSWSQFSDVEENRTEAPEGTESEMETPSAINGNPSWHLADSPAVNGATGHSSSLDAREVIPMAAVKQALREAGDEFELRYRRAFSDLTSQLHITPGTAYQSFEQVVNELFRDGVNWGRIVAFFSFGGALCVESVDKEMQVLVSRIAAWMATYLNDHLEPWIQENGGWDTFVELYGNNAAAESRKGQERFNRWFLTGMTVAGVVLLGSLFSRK
Outline: as §1

Bcl-2, sequence (P10415 whole entry): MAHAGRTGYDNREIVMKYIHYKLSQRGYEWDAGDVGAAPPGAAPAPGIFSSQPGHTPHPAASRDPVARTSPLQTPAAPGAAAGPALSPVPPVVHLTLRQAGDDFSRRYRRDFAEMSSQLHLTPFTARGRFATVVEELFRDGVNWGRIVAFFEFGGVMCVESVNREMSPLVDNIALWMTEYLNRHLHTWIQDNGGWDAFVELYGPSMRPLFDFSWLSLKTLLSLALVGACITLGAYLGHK

| SMILES | Ki [1] [nM] | Bcl-XL binding affinity Ki [3] | IC50 ([2]; Homo sapiens) [nM] | IC50 [2] [nM] |
| --- | --- | --- | --- | --- |
| CC(O)C1C(CO)ON(Cc2cccc(CN(CCN(C)C)Cc3cccc4ccccc34)c2)C1C(=O)NC1CC2CC(C1C)C2(C)C (stereo not drawn) [Compound 368] | < 800 | ♯ | 2000 to 5000 | – |
| CC(C)CN(CCN(C)C)Cc1cccc(CN2OC(CO)C(C(C)O)C2C(=O)NC2CC3CC(C2C)C3(C)C)c1 (stereo not drawn) [Compound 379] | < 800 | ♯ | > 5000 | – |
| CC(O)C1C(CO)ON(Cc2cccc(CN(CCN(C)C)Cc3cccc(C(F)(F)F)c3)c2)C1C(=O)NC1CC2CC(C1C)C2(C)C (stereo not drawn) [Compound 398] | < 800 | ♯ | > 5000 | – |
| CC(O)C1C(CO)ON(Cc2cccc(CN(CCN(C)C)Cc3ccc(-c4ccccc4)cc3)c2)C1C(=O)NC1CC2CC(C1C)C2(C)C (stereo not drawn) [Compound 400] | < 800 | ♯ | < 2000 | – |
| CC(=O)Oc1cccc(CN(CCN(C)C)Cc2cccc(CN3OC(CO)C(C(C)O)C3C(=O)NC3CC4CC(C3C)C4(C)C)c2)c1 (stereo not drawn) [Compound 405] | < 800 | ♯ | 2000 to 5000 | – |
| C[C@@H]1[C@@H](NC(=O)[C@@H]2C([C@H](C)O)[C@H](CO)ON2Cc2cccc(CN(Cc3ccccc3)[C@@H](CCc3ccccc3)CN(C)C)c2)C[C@H]2C[C@@H]1C2(C)C (stereo partly drawn) [Compound 420] | < 800 | ♯ | < 2000 | – |
| CC(O)C1C(CO)ON(Cc2cccc(CN(Cc3ccccc3)C(CC3CCCCC3)CN(C)C)c2)C1C(=O)NC1CC2CC(C1C)C2(C)C (stereo not drawn) [Compound 437] | < 800 | ♯ | > 5000 | – |
| CC(O)C1C(CO)ON(Cc2cccc(CN3C(CN(C)C)CC4CCCCC43)c2)C1C(=O)NC1CC2CC(C1C)C2(C)C (stereo not drawn) [Compound 466] | < 800 | ♯ | > 5000 | – |
| CC(O)C1C(CO)ON(Cc2cccc(CN3CCN(C)CC3c3ccccc3)c2)C1C(=O)NC1CC2CC(C1C)C2(C)C (stereo not drawn) [Compound 473] | < 800 | ♯ | > 5000 | – |
| COc1c(CN2O[C@@H](CO)[C@@H]([C@H](C)O)[C@H]2C(=O)N[C@H]2C[C@H]3C[C@@H]([C@@H]2C)C3(C)C)cccc1-c1cccc(C(=O)N[C@@H](CCc2ccccc2)CN(C)C)c1 [Compound 481] | < 800 | ♯ | 2000 to 5000 | – |
| COc1c(CN2O[C@@H](CO)[C@@H]([C@H](C)O)[C@H]2C(=O)N[C@H]2C[C@H]3C[C@@H]([C@@H]2C)C3(C)C)cccc1-c1cccc(C(=O)N[C@H](CN(C)C)c2ccccc2)c1 [Compound 491] | < 800 | ♯ | 2000 to 5000 | – |
| CC(C)C(CN(C)C)NC(=O)c1cccc(CN2OC(CO)C(C(C)O)C2C(=O)NC2CC3CC(C2C)C3(C)C)c1 (stereo not drawn) [Compound 502] | < 800 | ♯ | > 5000 | – |
| CC(O)C1C(CO)ON(Cc2cccc(C(=O)NC(Cc3ccccc3)CN(C)C)c2)C1C(=O)NC1CC2CC(C1C)C2(C)C (stereo not drawn) [Compound 507] | < 800 | ♯ | > 5000 | – |
| CC(C)C[C@H](CN(C)C)NC(=O)Nc1cccc(CN2O[C@@H](CO)[C@@H]([C@H](C)O)[C@H]2C(=O)NC2C[C@H]3C[C@@H]([C@@H]2C)C3(C)C)c1 (stereo partly drawn) [Compound 562] | < 800 | ♯ | > 5000 | – |
| C[C@@H]1[C@@H](NC(=O)[C@@H]2[C@H]([C@H](C)O)[C@H](CO)ON2Cc2cccc(NC(=O)N[C@@H](Cc3ccccc3)CN(C)C)c2)C[C@H]2C[C@@H]1C2(C)C [Compound 570] | < 800 | ♯ | > 5000 | – |

Further lines, with some results ahead:

| Ki [1] [nM] | Bcl-XL binding affinity Ki [3] | SMILES | IC50 ([2]; Homo sapiens) [nM] | IC50 [2] [nM] |
| --- | --- | --- | --- | --- |
| < 800 | ♯ | C[C@@H]1[C@@H](NC(=O)[C@@H]2C([C@H](C)O)[C@H](CO)ON2Cc2cccc(CN(CCN(C)C)Cc3ccccc3OC(F)(F)F)c2)C[C@H]2C[C@@H]1C2(C)C (stereo partly drawn) [Compound 365] | < 2000 | – |
| < 800 | ♯ | CC(O)C1C(CO)ON(Cc2cccc(CN(CCN(C)C)Cc3cccc(OC(F)(F)F)c3)c2)C1C(=O)NC1CC2CC(C1C)C2(C)C (stereo not drawn) [Compound 367] | 2000 to 5000 | – |
| < 800 | ♯ | CC(O)C1C(CO)ON(Cc2cccc(CN(CCN(C)C)Cc3ccccc3C#N)c2)C1C(=O)NC1CC2CC(C1C)C2(C)C (stereo not drawn) [Compound 369] | 2000 to 5000 | – |
| < 800 | ♯ | CC(O)C1C(CO)ON(Cc2cccc(CN(CCN(C)C)Cc3ccc(C(F)(F)F)cc3)c2)C1C(=O)NC1CC2CC(C1C)C2(C)C (stereo not drawn) [Compound 371] | 2000 to 5000 | – |
| < 800 | ♯ | CC(O)C1C(CO)ON(Cc2cccc(CN(CCN(C)C)Cc3c(Cl)cccc3Cl)c2)C1C(=O)NC1CC2CC(C1C)C2(C)C (stereo not drawn) [Compound 373] | 2000 to 5000 | – |
| < 800 | ♯ | CC(O)C1C(CO)ON(Cc2cccc(CN(CCN(C)C)Cc3cccc(Oc4ccccc4)c3)c2)C1C(=O)NC1CC2CC(C1C)C2(C)C (stereo not drawn) [Compound 374] | 2000 to 5000 | – |
| < 800 | ♯ | CC(O)C1C(CO)ON(Cc2cccc(CN(CCN(C)C)Cc3cccc(O)c3)c2)C1C(=O)NC1CC2CC(C1C)C2(C)C (stereo not drawn) [Compound 378] | 2000 to 5000 | – |
| < 800 | ♯ | CCOc1cccc(CN(CCN(C)C)Cc2cccc(CN3OC(CO)C(C(C)O)C3C(=O)NC3CC4CC(C3C)C4(C)C)c2)c1 (stereo not drawn) [Compound 383] | 2000 to 5000 | – |
| < 800 | ♯ | CC(O)C1C(CO)ON(Cc2cccc(CN(CCN(C)C)Cc3cc4ccccc4o3)c2)C1C(=O)NC1CC2CC(C1C)C2(C)C (stereo not drawn) [Compound 384] | 2000 to 5000 | – |
| < 800 | ♯ | Cc1ccc(CN(CCN(C)C)Cc2cccc(CN3OC(CO)C(C(C)O)C3C(=O)NC3CC4CC(C3C)C4(C)C)c2)cc1 (stereo not drawn) [Compound 386] | 2000 to 5000 | – |
| < 800 | ♯ | COc1cc(CN(CCN(C)C)Cc2cccc(CN3OC(CO)C(C(C)O)C3C(=O)NC3CC4CC(C3C)C4(C)C)c2)cc(OC)c1 (stereo not drawn) [Compound 404] | 2000 to 5000 | – |
| < 800 | ♯ | CC(O)C1C(CO)ON(Cc2cccc(CN(Cc3ccccc3)C3CCN(C)C3)c2)C1C(=O)NC1CC2CC(C1C)C2(C)C (stereo not drawn) [Compound 429] | 2000 to 5000 | – |
| < 800 | ♯ | C[C@@H]1[C@@H](NC(=O)[C@@H]2C([C@H](C)O)[C@H](CO)ON2Cc2cccc(CN(Cc3ccccc3)[C@@H]3CCN(C)C3)c2)C[C@H]2C[C@@H]1C2(C)C (stereo partly drawn) [Compound 432] | < 2000 | – |
| < 800 | ♯ | CC(O)C1C(CO)ON(Cc2cccc(CN3CCN(C)CC3)c2)C1C(=O)NC1CC2CC(C1C)C2(C)C (stereo not drawn) [Compound 447] | > 5000 | – |
| < 800 | ♯ | C[C@@H]1[C@@H](NC(=O)[C@@H]2C([C@H](C)O)[C@H](CO)ON2Cc2cccc(CN3[C@@H](CN(C)C)CC[C@H]3c3ccccc3)c2)C[C@H]2C[C@@H]1C2(C)C (stereo partly drawn) [Compound 448] | 2000 to 5000 | – |
| < 800 | ♯ | CC(O)C1C(CO)ON(Cc2cccc(CN3CCN(C)C(c4ccccc4)C3)c2)C1C(=O)NC1CC2CC(C1C)C2(C)C (stereo not drawn) [Compound 456] | > 5000 | – |
| < 800 | ♯ | CC(O)C1C(CO)ON(Cc2cccc(CN3c4ccccc4CC3CN(C)C)c2)C1C(=O)NC1CC2CC(C1C)C2(C)C (stereo not drawn) [Compound 465] | > 5000 | – |
| < 800 | ♯ | CC(O)C1C(CO)ON(Cc2cccc(CNCC3CCCN3C(=O)OCc3ccccc3)c2)C1C(=O)NC1CC2CC(C1C)C2(C)C (stereo not drawn) [Compound 474] | 2000 to 5000 | – |
| < 800 | ♯ | COc1c(CN2O[C@@H](CO)[C@@H]([C@H](C)O)[C@H]2C(=O)N[C@H]2C[C@H]3C[C@@H]([C@@H]2C)C3(C)C)cccc1-c1cccc(C(=O)N[C@@H](Cc2ccccc2)CN(C)C)c1 [Compound 477] | < 2000 | – |
| < 800 | ♯ | COc1c(CN2O[C@@H](CO)[C@@H]([C@H](C)O)[C@H]2C(=O)N[C@H]2C[C@H]3C[C@@H]([C@@H]2C)C3(C)C)cccc1-c1cccc(C(=O)N[C@H](CCc2ccccc2)CN(C)C)c1 [Compound 482] | < 2000 | – |
| < 800 | ♯ | C[C@@H]1[C@@H](NC(=O)[C@@H]2[C@H]([C@H](C)O)[C@H](CO)ON2Cc2cccc(NC(=O)N[C@H](Cc3ccccc3)CN(C)C)c2)C[C@H]2C[C@@H]1C2(C)C [Compound 571] | > 5000 | – |
| < 800 | ♯ | CC(O)C1C(CO)ON(Cc2cccc(NC(=O)NC(CCc3ccccc3)CN(C)C)c2)C1C(=O)NC1CC2CC(C1C)C2(C)C (stereo not drawn) [Compound 572] | 2000 to 5000 | – |
| < 800 | ♯ | CC(O)C1C(CO)ON(Cc2cccc(NC(=O)NC(CCc3ccccc3)CN(C)C)c2)C1C(=O)NC1CC2CC(C1C)C2(C)C (stereo not drawn) [Compound 573] | – | 2000 to 5000 |
